# Test results from patent publication US20250326715A1, “NOVEL MAIN PROTEASE INHIBITORS, AND COMPOSITIONS AND METHODS THEREOF” (University of Massachusetts, priority 2023, published 2025).
# Read-outs that look alike come from different tables or passages of the source.
# Assays:
# [1] = molecular target: T1, M^Pro (Severe acute respiratory syndrome coronavirus 2, UniProt P0DTD1); test: Labelling of A549-hACE2 lysate spiked with recombinant M^Pro with SM144, competition by SM141 or SM142; format: binding, SARS-CoV-2; conditions: 250 nM M^Pro spiked, 2.5 μM SM144, 2.5-25 μM competitor
# Protocol: A549-hACE2 cells were grown in the DMEM medium (supplemented with 10% heat-inactivated fetal bovine serum, 100 units/mL penicillin and 100 μg/mL streptomycin). Upon reaching ˜90% confluence, cells were collected using a cell scraper, harvested by centrifugation at 3,000 rpm for 5 min and were resuspended in 1×PBS supplemented with 1% NP-40. Then the cells were lysed using a probe sonicator and lysates were cleared by centrifugation at 21000 g for 15 min. Soluble proteins in the lysate were quantified by DC-assay (Bio-Rad).
# A549-hACE2 lysate (2 mg/mL, 50 μL total) spiked with or without recombinant M^Pro (250 nM final) was treated with DTT (1 mM final) and various concentrations of SM144 (0-5 μM final). […] All these reactions were incubated at 25° C. for 30 min. Then TAMRA-N3 (100 μM), TCEP (1 mM), TBTA (0.3 mM) and freshly prepared copper (II) sulphate (4 mM) were added sequentially to the reaction mixture. The tubes were then gently tumbled at room temperature for 2 h. The precipitated proteins were collected by centrifugation at 5000 rpm for 6 min. The protein pellets were resuspended in 5×SDS-PAGE loading dye, heated at 95° C. for 10 min and separated by SDS-PAGE. Protein bands were visualized by recording in-gel fluorescence using a typhoon scanner (excitation/emission maxima ˜546/579 nm). All the experiments were performed in duplicate.
# [2] = molecular target: T2, Cathepsin L (Homo sapiens, UniProt P07711); test: Cathepsin L inhibition assay kit (Abcam), IC50 and kinact/KI; format: biochemical; conditions: for IC50: 20 min pretreatment; for kinact/KI: read-out: Cathepsin L kinact/KI
# T2 construct: purchased Abcam ab197012
# T2 sequence (P07711 114-333): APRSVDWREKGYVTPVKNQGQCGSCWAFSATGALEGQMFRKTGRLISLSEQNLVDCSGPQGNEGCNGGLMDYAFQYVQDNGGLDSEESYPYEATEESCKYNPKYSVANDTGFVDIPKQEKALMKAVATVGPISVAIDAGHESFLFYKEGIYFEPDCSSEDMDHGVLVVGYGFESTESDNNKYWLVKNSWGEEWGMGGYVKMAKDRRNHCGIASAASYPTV
# Protocol: (§1) Determination of IC50 and kinact/KI values for Cathepsins L and B
# IC50 and kinact/KI values of the inhibitors were determined using commercially available inhibition assay kits (Abcam) by following the manufacturer's protocol. […] The observed rates (kobs) were determined by fitting to a single-phase association equation. The resulting kobs values were plotted against the concentrations of inhibitor and the data were fit to equation 2 to derive the kinact/KI values,
# using GraphPad Prism, where kinact is the maximal rate of inactivation, KI is the concentration of inhibitor that affords half-maximal inactivation, and [I] is the concentration of inhibitor. When kobs with [I] varied linearly, kinact/KI was determined from the slope of the line. All the experiments were performed in triplicate. […] Crystallization of M^Pro in Complex with Inhibitors
# [3] = molecular target: SARS-CoV-2 PL^Pro (Severe acute respiratory syndrome coronavirus 2, UniProt P0DTD1); test: Determination of IC50 values for SARS-CoV-2 PL^Pro (Z-RLRGG-AMC substrate); format: biochemical
# [4] = Pharmacokinetic parameters in mice (plasma, LC-MS/MS); conditions: for CI_Obs: IV
# Protocol: Pharmacokinetics were evaluated in male C57Bl/6 mice, approximately 25 g. Test compounds were formulated at 0.3 mg/mL for intravenous dosing and 1 mg/mL for oral gavage. Formulation concentrations reflect free-base concentrations. Formulations were prepared by dissolving in DMSO (20× stock) and mixing 1:1 with tween-80. Prior to dosing, the formulation was diluted with sterile saline. The final formulation was 5% DMSO, 5% tween-80, 90% saline (v:v:v). Mice (n=3) were dosed at 10 μL per gram body weight. […] A total of 25 μL blood was collected at each time point. The hematocrit tubes were sealed with a wax plug and held on ice until plasma could be isolated via centrifugation in a microcentrifuge fit with a hematocrit rotor.
# Drug levels were determined from 5 μL plasma. Plasma was treated with 75 μL 90/10 acetonitrile/water containing Carbamazepine as an internal standard (IS). Samples were loaded to a 96-well Millipore Multiscreen Solvinter 0.45 micron low binding PTFE hydrophilic filter plate and the filtrate was directly analyzed. All plasma samples were treated with 75 μL 90/10 acetonitrile/water with Carbamazepine as internal standard (IS) to extract the analyte and precipitate protein. The plates were agitated on ice for approximately five minutes prior to centrifugation into a collection plate. Separate standard curves were prepared in blank mouse plasma and brain homogenate and processed in parallel with the samples. The filtrate was directly analyzed by LC-MS/MS.
# [5] = molecular target: T3, SARS-CoV-2 M^Pro (Severe acute respiratory syndrome coronavirus 2, UniProt P0DTD1); test: Determination of IC50 values for SARS-CoV-2 M^Pro (fluorogenic peptide substrate, end-point); format: biochemical
# [6] = molecular target: T3, SARS-CoV-2 M^Pro; test: Determination of KI values for SARS-CoV-2 M^Pro (initial velocity, competitive inhibition); format: biochemical
# [7] = molecular target: T4, Cathepsin B (Homo sapiens, UniProt P07858); test: Cathepsin B inhibition assay kit (Abcam), IC50; format: biochemical; conditions: 20 min pretreatment
# T4 construct: purchased Abcam ab185438
# Protocol: as §1
# IC50 and kinact/KI values of the inhibitors were determined using commercially available inhibition assay kits (Abcam) by following the manufacturer's protocol. For IC50 values, enzymes were pretreated with test inhibitor (0-50 μM) for 20 min prior to adding the fluorogenic substrate, and end-point fluorescence was recorded after 30 min. For the kinact/KI values, enzymes were treated with inhibitor and substrate simultaneously and increase in fluorescence was monitored over 60 min. The observed rates (kobs) were determined by fitting to a single-phase association equation. The resulting kobs values were plotted against the concentrations of inhibitor and the data were fit to equation 2 to derive the kinact/KI values,
# using GraphPad Prism, where kinact is the maximal rate of inactivation, KI is the concentration of inhibitor that affords half-maximal inactivation, and [I] is the concentration of inhibitor. When kobs with [I] varied linearly, kinact/KI was determined from the slope of the line. All the experiments were performed in triplicate. All fluorescence measurements were taken at absorption/emission wavelength of 400/505 nm using an EnVision 2105 plate reader. Crystallization of M^Pro in Complex with Inhibitors
# [8] = molecular target: T3, SARS-CoV-2 M^Pro; test: Determination of kinact/KI values for SARS-CoV-2 M^Pro (time- and concentration-dependent inactivation); format: biochemical
# Protocol: where νo is the initial velocity of uninhibited reaction and νi is the initial velocity in the presence of inhibitor. All measurements were done in triplicate. Determination of kinact/KI values for SARS-CoV-2 M^Pro
# Time- and concentration-dependent inactivation assays were done by following a similar protocol as described for Ki determination. M^Pro (12.5 nM final) was treated with the peptide-substrate (30 μM final) and test inhibitor (0-80 μM for D-FF(R/Cit)-(CMK/CMKyne); 0-1.25 mM for SM136-145) at time=0 to initiate inactivation process. The total volume of the assay mixture was 50 μL. Time-dependent increase in fluorescence was monitored at 485 nm with excitation at 340 nm for a period of 20-25 min. The observed rates (kobs) for the peptide cleavage in both the presence and absence of inhibitor were determined by fitting to a single-phase association equation. The resulting kobs values were plotted against the concentrations of inhibitor and linear fits were used to derive the slope that afforded the kinact/KI values. All measurements were done in triplicate.
# [9] = test system: SARS-CoV-2; test: microbe, parasite or virus in culture; format: cell-based; conditions: for EC50: read-out: EC50, inhibition of SARS-CoV-2 infection; for IC50: hACE2 expressing A549 cells, read-out: IC50, block of SARS-CoV2 replication; for EC90: read-out: EC90, inhibition of SARS-CoV-2 infection
# [10] = molecular target: T1, M^Pro; format: binding
# [11] = 30 nM PL^Pro, 20 min preincubation, read-out: PL^Pro IC50
# [12] = male, C57Bl/6, mouse, plasma, iv, 3 mg/kg
# [13] = male, C57Bl/6, mouse, plasma, po, 10 mg/kg
# [14] = 12.5 nM M^Pro, 20 min preincubation, 30 μM substrate, read-out: M^Pro IC50
# [15] = competitive inhibition, initial velocity, read-out: M^Pro Ki
# [16] = Severe acute respiratory syndrome coronavirus 2, A549-hACE2 cells
# [17] = Severe acute respiratory syndrome coronavirus 2
smiles,measurement,setting,value
CCOC(=O)C=CC(CC1CCNC1=O)NC(=O)C(Cc1ccccc1)NC(=O)C(Cc1ccc(F)cc1)NC(=O)OC(C)(C)C (stereo not drawn) [SM142],labeling of M^Pro in spiked A549-hACE2 lysate / its inhibition,[1],dose dependently inhibited
same,IC50,[2],145 nM
same,kinact/KI,[2],1830 M⁻¹ s⁻¹
same,"inhibition of papain-like protease (PL^Pro), in words",[3],completely inactive
same,IC50,[3]; [11],> 50000 nM
same,half-life,"[4]; male, C57Bl/6, mouse, in vivo, po, 10 mg/kg",2.1 h
same,AUC(0-inf),[4]; [12],308 ng·h/mL
same,AUC(0-t),[4]; [12],0.4 µM·h
same,Cmax,[4]; [12],400 nM
same,MRT inf,[4]; [12],1.9 h
same,Tmax,[4]; [12],4.8 min
same,Vd,[4]; [12],13.2 L/kg
same,half-life,[4]; [12],2.1 h
same,AUC(0-inf),[4]; [13],347 ng·h/mL
same,AUC(0-t),[4]; [13],0.5 µM·h
same,Cmax,[4]; [13],600 nM
same,Tmax,[4]; [13],4.8 min
same,bioavailability,[4]; [13],37.5%
same,"oral bioavailability / oral absorption, in words",[4]; mice,significant oral absorption
same,"tissue distribution, in words",[4]; mice,much higher tissue distribution than SM141
same,CI_Obs,[4]; mice,169 mL/min/kg
same,IC50,[5]; [14],1800 nM
same,Ki,[6]; [15],10000 nM
same,IC50,[7],40000 ± 9000 nM
same,kinact/KI,[8]; read-out: M^Pro kinact/KI,183 M⁻¹ s⁻¹
same,EC50,[9]; [16],14.7 nM
same,IC50,[9]; [17],14.7 nM
C#CCOCCC(=O)NC(Cc1ccc(F)cc1)C(=O)NC(Cc1ccccc1)C(=O)NC(C=CC(=O)OCC)CC1CCNC1=O (stereo not drawn) [SM144],labeling of M^Pro in spiked A549-hACE2 lysate / its inhibition,[1],selectively labels M^Pro in a dose-dependent manner
same,IC50,[2],220 nM
same,kinact/KI,[2],1000 M⁻¹ s⁻¹
same,IC50,[3]; [11],> 50000 nM
same,IC50,[5]; [14],700 nM
same,Ki,[6]; [15],4500 nM
same,limit of detection of M^Pro by the probe,"[10]; 5 μM SM144, TAMRA-azide, in-gel fluorescence",5 pmol
same,IC50,[7],> 50000 nM
same,kinact/KI,"[8]; read-out: second-order rate constant for enzyme inactivation (kinact/KI), M^Pro",567 M⁻¹ s⁻¹
same,antiviral activity compared with SM141 and SM142,[9]; A549-hACE2 cells,significantly lower antiviral activity than SM141 and SM142
CCOC(=O)C=CC(CC1CCNC1=O)NC(=O)C(Cc1ccccc1)NC(=O)C(N)Cc1ccccc1 (stereo not drawn) [SM141],labeling of M^Pro in spiked A549-hACE2 lysate / its inhibition,[1],dose dependently inhibited
same,IC50,[2],60 nM
same,IC50,[3],> 50000 nM
same,"inhibition of papain-like protease (PL^Pro), in words",[3],completely inactive
same,"oral bioavailability / oral absorption, in words",[4]; mice,minimal oral bioavailability
same,"plasma half-life (T1/2), in words",[4]; mice,about an hour
same,"tissue distribution, in words",[4]; mice,lower tissue distribution
same,CI_Obs,[4]; mice,71.5 mL/min/kg
same,IC50,[5],900 nM
same,Ki,[6],9000 nM
same,inhibition of SM144 labeling of recombinant M^Pro,"[10]; 0-50 μM competitor, 5 μM SM144",competitively inhibited
same,IC50,[7],> 50000 nM
same,"antiviral activity, in words","[9]; A549-hACE2 cells, 2 μM, 24 h",almost completely blocks viral infection
same,EC90,[9]; A549-hACE2 cells,22 nM
same,EC50,[9]; [16],8.2 nM
same,EC90,[9]; [16],22.1 nM
same,IC50,[9]; [17],8.2 nM
